Data taken from PubChem BioAssay AID330 (DTP/NCI, 2004).
Several values for one entry are separate records, joined by “and”; a condition that tells them apart may be missing. Identical values can stand only once. Toxic doses and inconclusive results are not listed. How the source made its calls: active means survival T/C of 150% or more; inactive means T/C below 125% in these data.

Tested on: P388 leukemia ip, CD2F1 mice, survival T/C
Assay: NCI In Vivo Anticancer Drug Screen. Data for tumor model P388 Leukemia (intraperitoneal) in CD2F1 (CDF1) mice
Settings: endpoint: median survival time, higher = longer survival
Outline: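 Mice carrying the transplanted tumor received test compound or vehicle. Survival was recorded in each group, and the value is the treated-group measurement divided by that of the vehicle-treated control group.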

[1] = dose: 50.0 mg/kg/injection, schedule: Q01DX009 (ip), vehicle: saline
[2] = dose: 12.5 mg/kg/injection, schedule: Q01DX009 (ip), vehicle: Klucel (hydroxypropylcellulose) (HPC)
[3] = dose: 25.0 mg/kg/injection, schedule: Q01DX009 (ip), vehicle: Klucel (hydroxypropylcellulose) (HPC)
[4] = dose: 50.0 mg/kg/injection, schedule: Q01DX009 (ip), vehicle: Klucel (hydroxypropylcellulose) (HPC)
[5] = dose: 100.0 mg/kg/injection, schedule: Q01DX009 (ip), vehicle: Klucel (hydroxypropylcellulose) (HPC)
[6] = dose: 50.0 mg/kg/injection, schedule: Q01DX005 (ip), vehicle: saline with Tween-80
[7] = dose: 100.0 mg/kg/injection, schedule: Q01DX005 (ip), vehicle: saline with Tween-80
[8] = dose: 200.0 mg/kg/injection, schedule: Q01DX005 (ip), vehicle: saline with Tween-80
[9] = dose: 100.0 mg/kg/injection, schedule: Q01DX001 (ip), vehicle: saline with Tween-80
[10] = dose: 25.0 mg/kg/injection, schedule: Q01DX009 (ip), vehicle: saline with Tween-80
[11] = dose: 60.0 mg/kg/injection, schedule: Q01DX005 (ip), vehicle: saline with Tween-80
[12] = dose: 50.0 mg/kg/injection, schedule: Q01DX009 (ip), vehicle: saline with Tween-80
[13] = dose: 100.0 mg/kg/injection, schedule: Q01DX009 (ip), vehicle: saline with Tween-80
[14] = dose: 200.0 mg/kg/injection, schedule: Q01DX009 (ip), vehicle: saline with Tween-80

Measured: T/C

CC(C)=C(C#N)NC(C)(C)C
inactive: dose: 12.5 mg/kg/injection, schedule: Q01DX009 (ip), vehicle: saline 101 % of control | dose: 25.0 mg/kg/injection, schedule: Q01DX009 (ip), vehicle: saline 100 % of control | [1] 98 % of control and 94 % of control

O=C(OCCCCBr)c1ccccc1
inactive: dose: 50.0 mg/kg/injection, schedule: Q01DX009 (ip), vehicle: saline + Tween-80 + alcohol 102 % of control | dose: 100.0 mg/kg/injection, schedule: Q01DX009 (ip), vehicle: saline + Tween-80 + alcohol 97 % of control | dose: 200.0 mg/kg/injection, schedule: Q01DX009 (ip), vehicle: saline + Tween-80 + alcohol 96 % of control | dose: 400.0 mg/kg/injection, schedule: Q01DX009 (ip), vehicle: saline + Tween-80 + alcohol 111 % of control

CC#CC#C/C=C1/C=CC2(CC=CO2)O1 (centres undefined)
inactive: [2] 107 % of control | [3] 106 % of control | [4] 111 % of control | [5] 114 % of control

COc1ccc(CN2CC(C)(NC(=O)OCc3ccccc3)C2=O)c(OC)c1 (centres undefined)
inactive: [6] 106 % of control | [7] 98 % of control | [8] 103 % of control

Cc1cccc(Cl)c1NC1=NCCN1C(=O)CC(=O)c1ccccc1
inactive: dose: 3.13 mg/kg/injection, schedule: Q01DX009 (ip), vehicle: Klucel (hydroxypropylcellulose) (HPC) 107 % of control | dose: 6.25 mg/kg/injection, schedule: Q01DX009 (ip), vehicle: Klucel (hydroxypropylcellulose) (HPC) 105 % of control | [2] 99 % of control and 100 % of control

COc1cc(/C=C/C(=O)C(CN(C)C)CN(C)C)cc(OC)c1OC
inactive: dose: 6.25 mg/kg/injection, schedule: Q01DX005 (ip), vehicle: Klucel (hydroxypropylcellulose) (HPC) 100 % of control | dose: 12.5 mg/kg/injection, schedule: Q01DX005 (ip), vehicle: Klucel (hydroxypropylcellulose) (HPC) 103 % of control

COC(=S)NCCn1c([N+](=O)[O-])cnc1C
inactive: [9] 110 % of control | dose: 200.0 mg/kg/injection, schedule: Q01DX001 (ip), vehicle: saline with Tween-80 100 % of control | dose: 400.0 mg/kg/injection, schedule: Q01DX001 (ip), vehicle: saline with Tween-80 108 % of control

Cc1ccc(-n2c(=O)[nH]c3ccccc3c2=O)cc1[N+](=O)[O-]
inactive: dose: 6.25 mg/kg/injection, schedule: Q01DX005 (ip), vehicle: saline with Tween-80 101 % of control | dose: 12.5 mg/kg/injection, schedule: Q01DX005 (ip), vehicle: saline with Tween-80 97 % of control | [8] 90 % of control

Fc1ccc(NC(=S)S)cc1
inactive: dose: 6.25 mg/kg/injection, schedule: Q01DX009 (ip), vehicle: saline with Tween-80 104 % of control | dose: 6.25 mg/kg/injection, schedule: Q04DX003 (ip), vehicle: saline 100 % of control | dose: 12.5 mg/kg/injection, schedule: Q01DX009 (ip), vehicle: saline with Tween-80 104 % of control | dose: 12.5 mg/kg/injection, schedule: Q04DX003 (ip), vehicle: saline 115 % of control | [10] 104 % of control | dose: 25.0 mg/kg/injection, schedule: Q04DX003 (ip), vehicle: saline 100 % of control

CC1(C)C(=O)C=C[C@]2(C)[C@H]3CC[C@]4(C)C(=CC[C@H]4c4ccoc4)[C@]3(C)[C@H](O)C[C@@H]12
inactive: dose: 7.81 mg/kg/injection, schedule: Q01DX005 (ip), vehicle: Klucel (hydroxypropylcellulose) (HPC) 98 % of control | dose: 15.63 mg/kg/injection, schedule: Q01DX005 (ip), vehicle: Klucel (hydroxypropylcellulose) (HPC) 98 % of control | dose: 31.25 mg/kg/injection, schedule: Q01DX005 (ip), vehicle: Klucel (hydroxypropylcellulose) (HPC) 95 % of control | dose: 62.5 mg/kg/injection, schedule: Q01DX005 (ip), vehicle: Klucel (hydroxypropylcellulose) (HPC) 95 % of control | dose: 125.0 mg/kg/injection, schedule: Q01DX005 (ip), vehicle: Klucel (hydroxypropylcellulose) (HPC) 93 % of control

CCCN(CCC)C(=O)Cn1cc([N+](=O)[O-])s/c1=N/C(=O)NCC
inactive: dose: 25.0 mg/kg/injection, schedule: Q01DX001 (ip), vehicle: saline with Tween-80 97 % of control | dose: 50.0 mg/kg/injection, schedule: Q01DX001 (ip), vehicle: saline with Tween-80 99 % of control | [9] 106 % of control

O=C(O)C(=O)O.[Co].[NH-]CCC[NH-].[NH-]CCC[NH-]
inactive: dose: 25.0 mg/kg/injection, schedule: Q04DX002 (ip), vehicle: saline 98 % of control

C=C(CBr)CCCCC
inactive: [11] 104 % of control | dose: 120.0 mg/kg/injection, schedule: Q01DX005 (ip), vehicle: saline with Tween-80 105 % of control | dose: 240.0 mg/kg/injection, schedule: Q01DX005 (ip), vehicle: saline with Tween-80 117 % of control

CCCCCCC(/C=C/c1ccc(Cl)cc1)=N\O
inactive: [3] 106 % of control | [4] 104 % of control | [5] 100 % of control and 108 % of control

Cc1ncc[nH]1
inactive: [1] 90 % of control | dose: 100.0 mg/kg/injection, schedule: Q01DX009 (ip), vehicle: saline 92 % of control | dose: 200.0 mg/kg/injection, schedule: Q01DX009 (ip), vehicle: saline 89 % of control

CCN(CC)C(=O)OC1Cc2ccccc2CCc2ccccc2C1
inactive: dose: 100.0 mg/kg/injection, schedule: Q04DX003 (ip), vehicle: Klucel (hydroxypropylcellulose) (HPC) 103 % of control | dose: 200.0 mg/kg/injection, schedule: Q04DX003 (ip), vehicle: Klucel (hydroxypropylcellulose) (HPC) 101 % of control | dose: 400.0 mg/kg/injection, schedule: Q04DX003 (ip), vehicle: Klucel (hydroxypropylcellulose) (HPC) 101 % of control

CN1c2ccccc2C(C)(C)C12Cc1c(N)ncc(C#N)c1N2 (centres undefined)
inactive: [12] 91 % of control | [13] 88 % of control | [14] 93 % of control

CCSC(=N)N=Nc1ccc(O)cc1
inactive: [10] 100 % of control | [12] 99 % of control | [13] 99 % of control | [14] 93 % of control

C(=N\NC1=NCCN1)/c1ccc(-c2cn3cc(/C=N/NC4=NCCN4)ccc3n2)cc1
inactive: [11] 112 % of control

C1=Nc2ccccc2/C1=C/c1c[nH]c2ccccc12
inactive: dose: 25.0 mg/kg/injection, schedule: Q01DX005 (ip), vehicle: saline with Tween-80 110 % of control | [6] 100 % of control and 103 % of control and 104 % of control | [7] 101 % of control and 103 % of control and 104 % of control | [8] 104 % of control and 118 % of control and 122 % of control | dose: 400.0 mg/kg/injection, schedule: Q01DX005 (ip), vehicle: saline with Tween-80 104 % of control

Nc1ncc[n+]2c(COCCCl)[nH]nc12
inactive: dose: 100.0 mg/kg/injection, schedule: Q01DX001 (ip), vehicle: Klucel (hydroxypropylcellulose) (HPC) 92 % of control | dose: 200.0 mg/kg/injection, schedule: Q01DX001 (ip), vehicle: Klucel (hydroxypropylcellulose) (HPC) 92 % of control

NC(CCC(=O)NC(CSCNC(=O)Nc1ccc(Cl)cc1)C(=O)NCC(=O)O)C(=O)O (centres undefined)
inactive: dose: 60.0 mg/kg/injection, schedule: Q01DX005 (ip), vehicle: saline 97 % of control | dose: 120.0 mg/kg/injection, schedule: Q01DX005 (ip), vehicle: saline 97 % of control

O=C1C(Br)=C(Nc2ccccc2)C(=O)C(Br)=C1Nc1ccccc1
inactive: dose: 50.0 mg/kg/injection, schedule: Q01DX005 (ip), vehicle: Klucel (hydroxypropylcellulose) (HPC) 98 % of control | dose: 100.0 mg/kg/injection, schedule: Q01DX005 (ip), vehicle: Klucel (hydroxypropylcellulose) (HPC) 93 % of control

COC(=O)c1ccc(CNC(=O)c2ccccc2C(=O)NCC2(CBr)OCCO2)cc1
inactive: [4] 113 % of control | [5] 99 % of control | dose: 200.0 mg/kg/injection, schedule: Q01DX009 (ip), vehicle: Klucel (hydroxypropylcellulose) (HPC) 96 % of control
